In PMC12566046, “Arylpiperazinyl-Benzocycloheptapyrrole-Carboxamides Endowed with Dual Anticancer and Antiviral Activities” (Molecules, 2025) one finds inhibition, CC50 and GI50 data, which are given here for four molecules.

For series [1], the system named is cell line (breast cancer). Nature of the series: NCI-60 single-dose assay. It is filed as cell-based. The note with it: Homo sapiens, HS%/(T cell line), 10^−5 M, read-out: growth inhibition (GI%). In outline:
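Read-out is cytotoxic activity from a single-concentration test; the panel spans nine human cancer types, including leukemia, lung, colon and renal.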

For a further series, the system named is Vero TMPRSS cells. Particulars: read-out: SARS‐CoV‐2/Vero TMPRSS CC50; preliminary screening (50, 5, 0.5 μM), Vero TMPRSS.
For another series, the system named is Huh-7 cells. Nature of the series: Cytotoxicity on uninfected Huh-7 cells (WST-8, crystal violet). The note with it: read-out: ZIKV/Huh‐7 CC50; preliminary screening (50, 5, 0.5 μM), Huh-7. Background: Tetrazolium dyes change colour on reduction, which living cells bring about.
The test system of a further series is MDCK cells. In words: Cytotoxicity on uninfected MDCK cells (WST-8, crystal violet). Particulars: read-out: IAV/MDCK CC50; preliminary screening (50, 5, 0.5 μM), MDCK.
The next series can be described thus: in vitro. Particulars: human.
Another series deals with SF-295 (CNS cancer). Nature of the series: NCI-60 five-dose assay. It is filed as cell-based. Particulars: Homo sapiens, five-dose screen.
Series [2] has as its system CAKI-1 (renal cancer cell line). In words: NCI-60 five-dose assay. It is filed as cell-based. Particulars: Homo sapiens, five-dose screen.

Take `O=C(NCCCN1CCN(Cc2ccccc2)CC1)c1c(Cl)[nH]c2c1CCCc1ccccc1-2` [Compound 20, N-(3-(4-Benzylpiperazin-1-yl)propyl)-2-chloro-1,4,5,6-tetrahydrobenzo[6,7]cyclohepta[1,2-b]pyrrole-3-carboxamide]: in series [1], the inhibition at 10 µM is 72.4%.

As for “N-(3-(4-Benzylpiperazin-1-yl)propyl)-2-chloro-1,4,5,6-tetrahydrobenzo[6,7]cyclohepta[1,2-b]pyrrole-2-carboxamide [Compound 11]”, the CC50 in the series with Vero TMPRSS cells worked out at 15.4 µM; in the series on Huh-7 cells it was 4.89 µM; in the series on MDCK cells it was 5.38 µM.

Take `O=C(NCCN1CCN(c2ccc(Cl)cc2)CC1)c1c(Cl)[nH]c2c1CCCc1ccccc1-2` [Compound 13]: the CC50 in “in vitro” was 62.2 µM.

For the molecule `CCN1CCC[C@H]1CNC(=O)c1[nH]c2c(c1Cl)CCCc1ccccc1-2` [Compound 1, (S)-3-Chloro-N-(1-ethyl-2-pyrrolidinylmethyl)-5,6-dihydro-4H-benzo[6,7]cyclohepta[1,2-b]pyrrol-2-carboxamide], the 50% growth inhibitory concentration (GI50) with SF-295 (CNS cancer) was 1.89 µM; in series [2], 2.29 µM.

The term inhibition denotes how much of the control response was suppressed. By GI50 is commonly meant the concentration that inhibits growth by half. High values mean less potent growth inhibition, low ones more potent growth inhibition.
